Assay results from patent US11965159B2, “Compositions and methods for regulating proteins and nucleic acids activities” (THE BROAD INSTITUTE, INC., priority 2019, dated 2024).
Entries after “also recorded” stand apart in the source; their conditions may differ.

Experiments:
U2OS.eGFP.PEST cells = assay: Cell viability assay (ATP content) of U2OS.eGFP.PEST cells; format: cell-based, human; conditions: for cytotoxicity (ATP content) in secondary screen: 20 μM compounds, 48 h; for cellular ATP-levels: U2OS cells, up to 20 μM, 24 h
Description: FIG. 14—Cell viability assay (ATP content) of U2OS.eGPF.PEST cells in the presence of compounds. Measurement of ATP content of U2OS.eGFP.PEST cells upon incubating with 20 μM compounds for 48 h. Error bars represent ±S.D. from technical replicates (n=3).
FIG. 22—Cell viability assay (ATP content) of U2OS.eGFP.PEST cells in the presence of compounds. Measurement ATP content of U2OS.eGFP.PEST cells upon incubating with BRD7087 and BRD5779 (5-20 μM) for 24 h. Error bars represent ±S.D. from technical replicates (n=3).
FIG. 58. Cell viability assay (ATP content) of U2OS.eGFP.PEST cells in the presence of compounds. Measurement of ATP content of U2OS.eGFP.PEST cells upon incubating with 20 μM compound for 48 h. Error bars represent±S.D. from technical replicates (n=3).
FIG. 66. Cell viability assay (ATP content) of U2OS.eGFP.PEST cells in the presence of compounds. Measurement of ATP content of U2OS.eGFP.PEST cells upon incubating with BRD7087 and BRD5779 (5-20 μM) for 24 h. Error bars represent ±S.D. from technical replicates (n=3).

[1] = system: CRISPR-Cas9 based immunity in S. aureus RN4220; assay: Bacterial resistance study against phage (CRISPR immunity, OD600 growth curves); format: cell-based; conditions: 5-20 μM, 16 h, MOI 1
Description: (§1) Bacterial study. Plasmid pRH248 harboring SpCas9, tracrRNA and a single-spacer array ([…]) (SEQ ID NO:7) targeting phage DNM474 was constructed via BsaI cloning onto pDB114 as described in Heler et al 6. Plate reader growth curves of bacteria infected with phage were conducted as described previously with minor modifications 7. Overnight cultures were diluted 1:100 into 2 ml of fresh BHI supplemented with appropriate antibiotics and 5 mM CaCl2) and grown to an OD600 of ˜0.2. Immune cells carrying pRH248 were diluted with cells lacking CRISPR-Cas in a 1:10,000 ratio. Following a 15-minute pre-incubation with DMSO or with varying amounts of inhibitors (5-20 μM), the cultures were infected with DNM474 at an initial MOI of 1. To produce plate reader growth curves, 200 μL of infected cultures, normalized for OD600, were transferred to a 96-well plate in triplicate. OD600 measurements were collected every 10 minutes for 16 hours. Similarly, growth curves to evaluate the toxicity of the compounds at 20 μM (FIG. 32) were conducted on cultures lacking CRISPR in the absence of phage.
(§2) Bacterial study. […] Plate reader growth curves of bacteria infected with phage were conducted as described previously with minor modifications^7. […] To produce plate reader growth curves, 200 μL of infected cultures, normalized for OD600, were transferred to a 96-well plate in triplicate. […]

S. aureus RN4220 = assay: Toxicity study of compounds in bacterial culture (absence of phage); format: cell-based; conditions: 20 μM, 16 h, no phage
Description: FIG. 79. Toxicity study of compounds in bacterial culture. Bacterial growth study in the presence of the compound. Bacterial cell S. aureus RN4220 strain was allowed to grow either in the presence of DMSO or 20 μM of compound BRD7087 or BRD5779 over 16 h. The experiment was performed in three technical replicates.
as §1, with “Following a 15-minute pre-incubation with DMSO or with varying amounts of inhibitors (5-20 μM), the cultures were infected with DNM474 at an initial MOI of 1.” left out, “OD600 measurements were collected every 10 minutes for 16 hours. Similarly, growth curves to evaluate the toxicity of the compounds at 20 μM (FIG. 32) were conducted on cultures lacking CRISPR in the absence of phage.” left out
as §2

Compound	cytotoxicity (ATP content) in secondary screen (U2OS.eGFP.PEST cells)	cellular ATP-levels (U2OS.eGFP.PEST cells)	blockage of CRISPR-Cas9 immunity (sensitization of immune bacteria to phage, OD600) [1]	toxicity to bacteria in the presence of inhibitor alone (S. aureus RN4220)
OC[C@H]1Nc2ccc(-c3cccc(F)c3)cc2[C@H]2[C@@H]1CCN2Cc1ccncc1 [BRD7087, ((3aR,4S,9bR)-8-(3-Fluorophenyl)-1-(pyridin-4-ylmethyl)-2,3,3a,4,5,9b-hexahydro-1H-pyrrolo[3,2-c]quinolin-4-yl)methanol]	non-toxic	did not significantly alter	dose-dependent blockage of CRISPR-Cas9 based immunity; also recorded: able to sensitize the immune bacterial cells against target phage in a dose-dependent manner; also recorded: higher activity	non-toxic in the absence of phage
COc1ccc(-c2ccc3c(c2)[C@H]2[C@H](CCN2Cc2ccncc2)[C@@H](CO)N3)cc1 [BRD5779, ((3aR,4S,9bR)-8-(4-Methoxyphenyl)-1-(pyridin-4-ylmethyl)-2,3,3a,4,5,9b-hexahydro-1H-pyrrolo[3,2-c]quinolin-4-yl)methanol]	non-toxic	did not significantly alter	dose-dependent blockage of CRISPR-Cas9 based immunity; also recorded: able to sensitize the immune bacterial cells against target phage in a dose-dependent manner	non-toxic in the absence of phage
